In publication PMC7931047, “Discovery of Substituted (2-Aminooxazol-4-yl)Isoxazole-3-carboxylic Acids as Inhibitors of Bacterial Serine Acetyltransferase in the Quest for Novel Potential Antibacterial Adjuvants” (Pharmaceuticals, 2021):
Entries after “also recorded” stand apart in the source; their conditions may differ. Read-outs that look alike come from different tables or passages of the source.

Columns and labels:
[1] = biological target: T1, SAT from Salmonella enterica serovar Typhimurium (Salmonella typhimurium, UniProt P29847); assay: StSAT enzyme activity assay (spectrophotometric indirect assay with Ellman's reagent); assay type: biochemical; settings: for inhibition at 1000 µM: compound at fixed 1 mM, both substrates equal to Km, 5% DMSO
T1 construct: trxA (thioredoxin) fusion; made in house
T1 sequence (P29847 whole entry, the tested form may be a part): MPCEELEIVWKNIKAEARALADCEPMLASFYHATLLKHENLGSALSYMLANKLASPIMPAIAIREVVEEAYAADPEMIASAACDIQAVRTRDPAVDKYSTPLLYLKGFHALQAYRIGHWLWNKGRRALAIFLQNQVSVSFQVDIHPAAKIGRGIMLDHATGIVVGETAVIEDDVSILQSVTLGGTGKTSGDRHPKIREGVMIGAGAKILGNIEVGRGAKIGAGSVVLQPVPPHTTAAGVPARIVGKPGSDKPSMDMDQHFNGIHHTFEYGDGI
Experimental: Since the primary structure of SAT is highly conserved among bacteria, [38] the virtual screening of our in-house library was performed using the available crystal structures of EcSAT (pdb code: 1T3D) and HiSAT (pdb code: 1SSM), setting the experimental parameters as previously reported by us. After this preliminary analysis, a total of 7 compounds were identified and selected to be evaluated on the recombinant enzyme from S. typhimurium. The enzyme used in these assays has a Km,Ser = 1.07 ± 0.15 mM, a Km,AcCoA = 0.17 ± 0.04 mM, kcat = 3813 ± 169 min^−1 [37].
SAT from Salmonella enterica serovar Typhimurium was expressed as trxA fusion protein as previously described and was more than 95% pure based on SDS-PAGE analysis. The enzyme activity was measured by a spectrophotometric indirect assay that exploits the signal at 412 nm generated by 5,5’-Dithiobis(2-nitrobenzoic acid (Ellmn’s reagent) reduction by the reaction product coenzyme A [37]. A total of 5% DMSO was present in all the assays and was proven not to perturb enzyme activity (data not shown). The concentration of substrates was set equal to Km in order to improve the sensitivity of the assay for both competitive and uncompetitive mechanism of inhibition. The dependence of the relative reaction rate on the concentration of compounds was fitted to Equation (1) to calculate the IC50: vi/v0=1/1+[I]/IC50
The inhibition mechanism was determined by fitting the dependence of the initial reaction rate on the concentration of acetyl CoA (at fixed, 1 mM L-Ser concentration) in the presence of different concentrations of inhibitor ( 1/3IC50≥[inhibitor]≤3IC50 ) to the equation for competitive, uncompetitive and non-competitive mechanisms. The equation that fits a competitive mechanism (Equation (2)) was used to calculate Ki for compound 5: v0=Vmax·[acetyl−CoA]/[acetyl−CoA]+(Km·α) where α=1+([comp5]/Ki) .

M. tuberculosis = system: M. tuberculosis; design: method as in PMID 28749666; settings: cited from earlier work
S. Typhimurium ATCC14028 = assay: Minimal Inhibitory Concentration (MIC) assay; assay type: cell-based
[2] = Chemical stability in DMSO solution by 1H NMR at different time points; assay type: physicochemical; settings: 5 mg in 500 μL DMSO-d6, room temperature
Experimental: Upon noticing changes in the appearance of the DMSO solution over time at room temperature, we deemed it of interest to investigate the chemical stability of the compounds. Therefore, in order to evaluate it, ^1H NMR analysis at different time points (1 h, 2.5 h, and 20 h) of the DMSO solution (5 mg in 500 μL of DMSO-d6) was performed (Supporting Information). Since the time required to observe changes in the colour of the solution was dependent of the substituent at position R2 of series 22, to establish the effect of the substituent on the overall stability of the compound, analogue 22a (R2 = phenyl) which contains the non-substituted phenyl group, analogue 22b (R2 = 3,5-dichlorophenyl), substituted with an EWG and analogue 22d (R2 = 3,5-dimethylphenyl) substituted with an electron donating group (EDG) were selected to perform the chemical stability studies. The stability of the compounds increases in the following order: 22b (stability in DMSO < 2.5 h) < 22a (stability in DMSO < 20 h) < 22d (stability in DMSO < 7 days). Thus, it is possible to conclude that EWGs like the simple phenyl or the phenyl replaced with two chlorines produce fewer stable molecules. On the other hand, the phenyl replaced with EDGs contributes to the overall stability of the molecule. It is hypothesised that the mild oxidative properties of DMSO are able to interfere with the oxazole scaffold, which leads to the opening of the ring and then full degradation of the compound in study.

E. coli ATCC25922 = assay: Minimal Inhibitory Concentration (MIC) assay; assay type: cell-based; settings: Escherichia coli; E. coli ATCC25922, Mueller Hinton broth (MHB)
StOASS = system: StOASS; design: method as in PMID 26894308; settings: cited from earlier work
[3] = Table 3, synthesised compounds, read-out: StSAT IC50
[4] = values as quoted in the SAR discussion text, read-out: IC50
[5] = Table 2, analogues of compound 5, * = estimated due to solubility issues, read-out: IC50
[6] = StSAT IC50, Table 3, synthesised compounds

Compound: CCOC(=O)c1cc(-c2coc(Nc3ccncc3)n2)on1 [Compound 21e, Ethyl 5-(2-(pyridin-4-ylamino)oxazol-4-yl)isoxazole-3-carboxylate]
- IC50 [1, 3]: 0.00395 ± 0.00065 mM

Compound: Cc1ccc(Nc2nc(-c3cc(C(=O)O)no3)cs2)cc1 [Compound 5]
- activity toward M. tuberculosis (M. tuberculosis): inactive
- IC50 ([1]; Table 1, virtual screening hits, substrates equal to Km, read-out: IC50): 0.11 mM
- Ki ([1]; competitive towards acetyl-CoA, fixed 1 mM L-Ser): 64 ± 12 µM
- Mechanism ([1]; inhibition mechanism, varied acetyl CoA at fixed 1 mM L-Ser): competitive inhibitor; also recorded: Competitive with AcCoA

Compound: CNC(=O)c1cc(-c2csc(Nc3ccc(C)cc3)n2)on1 [Compound 12]
- IC50 [1, 4]: 0.06 mM

Compound: CC1CN(C(=O)c2cc3ccccc3[nH]2)CC(C)N1 (centres unmarked) [Compound 3]
- inhibition at 1000 µM [1]: 31.4 ± 5%

Compound: Cc1ccc(Nc2nc(-c3cc(C(=O)Nc4ccccc4)no3)cs2)cc1 [Compound 13]
- IC50 [1, 5]: 0.016 ± 0.003 mM
- IC50 [1, 4]: 0.0163 mM

Compound: Cc1cc(C)cc(Nc2nc(-c3cc(C(=O)O)no3)co2)c1 [Compound 22d, 5-(2-((3,5-dimethylphenyl)amino)oxazol-4-yl)isoxazole-3-carboxylic acid]
- IC50 [1, 3]: 0.00424 ± 0.00011 mM
- MIC (S. Typhimurium ATCC14028; S. Typhimurium ATCC14028, M9 medium deprived of cysteine): > 128 µM
- MIC (S. Typhimurium ATCC14028; Salmonella enterica, S. Typhimurium ATCC14028, Mueller Hinton broth (MHB)): > 128 µM
- stability in DMSO [2]: < 170 h
- MIC (E. coli ATCC25922): > 128 µM

Compound: CCOC(=O)c1cc(-c2csc(Nc3ccc(C)cc3)n2)on1 [Compound 14]
- IC50 [1, 5]: ~0.01 mM
- IC50 [1, 4]: 0.01 mM

Compound: CCn1c2ccccc2c2cc(CNC)ccc21 [Compound 6]
- inhibition at 1000 µM [1]: 23.6%

Compound: CC(=O)NC(C(=O)O)C(=O)O [Compound 4]
- inhibition at 1000 µM [1]: 18.7 ± 6%

Compound: O=C(O)C1C2C=CC(C2)C1C(=O)O (centres unmarked) [Compound 2]
- inhibition at 1000 µM [1]: 34.9 ± 6%

Compound: O=C(O)c1cc(-c2coc(Nc3ccc(F)cc3)n2)on1 [Compound 22c, 5-(2-((4-fluorophenyl)amino)oxazol-4-yl)isoxazole-3-carboxylic acid]
- IC50 [1, 3]: 0.00251 ± 0.00034 mM

Compound: O=C(O)c1cc(-c2coc(Nc3cc(Cl)cc(Cl)c3)n2)on1 [Compound 22b, 5-(2-((3,5-dichlorophenyl)amino)oxazol-4-yl)isoxazole-3-carboxylic acid]
- IC50 [1, 6]: 0.00803 ± 0.00018 mM
- stability in DMSO [2]: < 2.5 h

Compound: Cc1ccc(C(=O)O)c(N)n1 [Compound 1]
- inhibition at 1000 µM [1]: 19.4 ± 1%

Compound: Cc1ccc(Nc2nc(-c3cc(C(=O)NC45CC6CC(CC(C6)C4)C5)no3)cs2)cc1 [Compound 10]
- IC50 [1, 5]: 0.009 ± 0.003 mM

Compound: O=C(O)c1cc(-c2coc(Nc3ccncc3)n2)on1 [Compound 22e, 5-(2-(pyridin-4-ylamino)oxazol-4-yl)isoxazole-3-carboxylic acid]
- IC50 [1, 3]: 0.012 ± 0.00125 mM

Compound: O=C(O)c1cc(-c2csc(Nc3cc(Cl)cc(Cl)c3)n2)on1 [Compound 20]
- IC50 [1, 5]: 0.011 ± 0.001 mM

Compound: CCOC(=O)c1cc(-c2coc(Nc3cc(Cl)cc(Cl)c3)n2)on1 [Compound 21b, Ethyl 5-(2-((3,5-dichlorophenyl)amino)oxazol-4-yl)isoxazole-3-carboxylate]
- IC50 [1, 3]: 0.00252 ± 3e-05 mM

Compound: COc1ccc(-c2cc(-c3csc(Nc4ccc(C)cc4)n3)on2)cc1 [Compound 9]
- IC50 [1, 5]: 0.012 ± 0.002 mM

Compound: CCOC(=O)c1cc(-c2coc(Nc3ccccc3)n2)on1 [Compound 21a, Ethyl 5-(2-(phenylamino)oxazol-4-yl)isoxazole-3-carboxylate]
- IC50 [1, 3]: 0.00268 ± 0.00027 mM

Compound: Cc1ccc(CC2(C(=O)O)CC2c2ccccc2)cc1 (centres unmarked) [UPAR415]
- mechanism of OASS inhibition (StOASS): competitive inhibitor

Compound: CCOC(=O)c1cc(-c2coc(Nc3ccc(F)cc3)n2)on1 [Compound 21c, Ethyl 5-(2-((4-fluorophenyl)amino)oxazol-4-yl)isoxazole-3-carboxylate]
- IC50 [1, 3]: 0.00304 ± 0.00037 mM

Compound: CCOC(=O)c1cc(-c2coc(Nc3ccc(C)cc3)n2)on1 [Compound 19]
- IC50 [1, 5]: 0.007 ± 0.002 mM
- IC50 [1, 4]: 0.0073 mM

Compound: CCOC(=O)c1cc(-c2csc(Nc3cc(Cl)cc(Cl)c3)n2)on1 [Compound 15]
- IC50 [1, 5]: 0.018 ± 0.002 mM

Compound: Cn1nc(C(=O)O)cc1-c1csc(Nc2cc(Cl)cc(Cl)c2)n1 [Compound 17]
- IC50 [1, 5]: 0.021 ± 0.005 mM

Compound: Cc1ccc(Nc2nc(-c3ccncc3)cs2)cc1 [Compound 8]
- IC50 [1, 5]: > 0.4 mM

Compound: Cc1ccc(Nc2nc(-c3cc(C(=O)O)nn3C)cs2)cc1 [Compound 16]
- IC50 [1, 5]: 0.184 ± 0.013 mM

Compound: O=C(O)[C@H]1C[C@@H]1c1ccccc1 [Compound 7]
- inhibition at 1000 µM [1]: > 40%
- IC50 ([1]; virtual screening hit, value printed in mM (μM), read-out: IC50): > 2 mM

Compound: Cc1ccc(Nc2nc(-c3cc(C(N)=O)no3)cs2)cc1 [Compound 11]
- IC50 [1, 5]: 0.026 ± 0.004 mM

Compound: Cc1ccc(Nc2nc(-c3cc(C(=O)O)no3)co2)cc1 [Compound 18]
- improvement in the affinity compared to the 2-aminothiazole counterpart ([1]; 18 vs. 5, from IC50): > 40 fold
- IC50 [1, 4]: 0.0026 mM

Compound: O=C(O)c1cc(-c2coc(Nc3ccccc3)n2)on1 [Compound 22a, 5-(2-(phenylamino)oxazol-4-yl)isoxazole-3-carboxylic acid]
- IC50 [1, 6]: 0.00154 ± 0.00033 mM
- stability in DMSO [2]: < 20 h
